Where two headings read alike, the source gives them in different places.
How the values were obtained:
[1] = system: Revlimid-resistant NCI-H929 R4-10; experiment: Proliferation and viability by 7-AAD staining; type: cell-based; details: Homo sapiens, NCI-H929, 120 h, read-out: IC50, proliferation
[2] = system: Revlimid-resistant NCI-H929 R2-10; experiment: Proliferation and viability by 7-AAD staining; type: cell-based; details: Homo sapiens, NCI-H929, 120 h, read-out: IC50, proliferation
[3] = system: NCI-H929 cells (Control, Revlimid-sensitive, parental); experiment: Proliferation and viability by 7-AAD staining; type: cell-based; details: Homo sapiens, NCI-H929, 120 h, read-out: IC50, proliferation
[4] = system: purified primary human T cells stimulated using immobilized anti-CD3 antibody; experiment: T-cell costimulation, IL-2 production; type: cell-based
Experimental: CRBN ubiquitination was measured in HEK293T cells, which were transfected with an amino-terminal His-biotin-tagged CRBN construct, then preincubated with compounds for one hour followed by treatment with the MG132 proteasome inhibitor (to arrest degradation of ubiquitinated proteins). Cells were lysed and processed to measure CRBN ubiquitination by SDS-PAGE and immunoblot analysis using an anti-ubiquitin antibody. Cell proliferation studies were conducted in lenalidomide-sensitive and refractory multiple myeloma cells. […] T-cell costimulation was measured in purified primary human T cells stimulated using immobilized anti-CD3 antibody in cell culture for 2 days, and cytokine secretion was measured by ELISA.

[5] = system: megakaryocyte progenitor cells (normal human bone marrows); experiment: Megakaryocyte colony formation assay; type: cell-based; details: Homo sapiens, 14-16 days
Experimental: Colony formation assay was conducted with normal human bone marrows treated in semi-solid collagen matrix with compound/IL-3/IL-6/Tpo for 14-16 days, and the results are summarized in Table 7.

[6] = system: normal donor peripheral blood mononuclear cells; experiment: Immunoglobulin M and G production; type: cell-based; details: Homo sapiens, PBMC
Experimental: Immunoglobulin M and G (“IgG and IgM”) production was measured from normal donor peripheral blood mononuclear cells by culturing in the presence of the B cell differentiation factors recombinant human IL-2 (20U/mL), IL-10 (50 ng/mL), IL-15 (10 ng/mL), His-tagged CD40 Ligand (50 ng/mL), polyHistidine mouse IgG1 antibody (5 μg/mL), and ODN 2006-Human TLR9 ligand (10 μg/mL) for 4 days, followed by IL-2, IL-10, IL-15, and IL-6 (50 ng/mL) for an additional 3 days. IgM and IgG were measured by ELISA.

[7] = system: Revlimid-resistant NCI-H929 R3-10; experiment: Proliferation and viability by 7-AAD staining; type: cell-based; details: Homo sapiens, NCI-H929, 120 h, read-out: IC50, proliferation
[8] = molecular target: T1, endogeneous human CRBN (U266 extract) (Homo sapiens, UniProt Q96SW2); experiment: Thalidomide affinity bead competition assay; type: binding; details: 3 μM
T1 construct: endogenous in cells; host or cells: U266 human multiple myeloma cells (NP-40 lysate)
Experimental: Affinity beads coupled to a thalidomide acid analog were incubated with the U266 extracts and, after extensive washing of the beads, the bound proteins were eluted. CRBN binding to the thalidomide-coupled affinity beads was determined by quantitative CRBN immunoblot determination.

[9] = system: Revlimid-resistant NCI-H929 R1-10; experiment: Proliferation and viability by 7-AAD staining; type: cell-based; details: Homo sapiens, NCI-H929, 120 h, read-out: IC50, proliferation
[10] = system: WSU-DLCL2 DLBCL xenograft; experiment: WSU-DLCL2 DLBCL xenograft model
[11] = system: DoHH2 Follicular Lymphoma xenograft; experiment: DoHH2 Follicular Lymphoma xenograft model; type: in vivo, mouse
[12] = Bone Marrow ID 0090128, read-out: Immature Colony IC50
[13] = Bone Marrow ID 0090128, read-out: Intermediate Colony IC50
[14] = Bone Marrow ID 0090616, read-out: Immature Colony IC50
[15] = Bone Marrow ID 0090616, read-out: Intermediate Colony IC50
[16] = Bone Marrow ID 0090714, read-out: Immature Colony IC50
[17] = Bone Marrow ID 0090714, read-out: Intermediate Colony IC50
[18] = 30 mg/kg monotherapy, Compound I-S: 84% S-enantiomer, 16% R-enantiomer
[19] = 30 mg/kg with Rituxan 1 mg/kg, Compound I-S: 84% S-enantiomer, 16% R-enantiomer
[20] = 40 mg/kg monotherapy, Compound I-S: 91% S-enantiomer, 9% R-enantiomer

Compound: Nc1cccc2c1C(=O)N(C1CCC(=O)NC1=O)C2=O (stereo not shown) [Pomalidomide, pomalidomide, reference compound]
- IC50 [1]: 14 µM
- IC50 [2]: > 30 µM
- IC50 [3]: 0.09 µM
- EC50 [4]: 0.01 µM
- IC50 [5, 12]: > 10 µM
- IC50 [5, 13]: > 10 µM
- IC50 [5, 14]: 0.35 µM
- IC50 [5, 15]: 1.4 µM
- IC50 [5, 16]: 1 µM
- IC50 [5, 17]: > 10 µM
- IC50 ([6]; read-out: IgG production IC50): 0.063 µM
- IC50 ([6]; read-out: IgM production IC50): 0.017 µM
- IC50 [7]: 6.3 µM
- less CRBN bound to the affinity beads [8]: approximately 50%
- IC50 [9]: > 30 µM

Compound: Nc1cccc2c1CN(C1CCC(=O)NC1=O)C2=O (stereo not shown) [Revlimid, lenalidomide, reference compound]
- IC50 [5, 12]: 1.3 µM
- IC50 [5, 13]: > 10 µM
- IC50 [5, 14]: 0.56 µM
- IC50 [5, 15]: 1.3 µM
- IC50 [5, 16]: 0.41 µM
- IC50 [5, 17]: > 10 µM
- Tumor Free Survival on Day 44 ([10]; 30 mg/kg in combination with Rituxan 2 mg/kg iv qw): 6/9
- % TGD ((T − C)/C) [11, 18]: 12%
- % TGI at D12 (T/C) [11, 18]: 19%
- % TGD ((T − C)/C) [11, 19]: 52%
- % TGI at D12 (T/C) [11, 19]: 54%
- % TGD ((T − C)/C) [11, 20]: 17%
- % TGI at D12 (T/C) [11, 20]: 49%

Compound: rituximab [Rituxan, reference compound]
- Tumor Free Survival on Day 44 ([10]; Rituxan 2 mg/kg iv qw alone): 2/10
- % TGD ((T − C)/C) ([11]; 1 mg/kg monotherapy): 34%
- % TGI at D12 (T/C) ([11]; 1 mg/kg monotherapy): 19%

Source: patent US20260007679A1, “METHODS OF TREATING CANCER USING 3-(4-((4-(MORPHOLINOMETHYL)BENZYL)OXY)-1-OXOISOINDOLIN-2-YL)PIPERIDINE-2,6-DIONE” (Celgene Corporation, priority 2012, published 2026)
